Source: patent publication US20250268877A1 (BIOGEN MA INC., priority 2020, published 2025)
Converted amounts (≈) assume the structure as drawn. Like-named read-outs stand apart in the source and are kept apart here.

Columns and labels:
[1] = molecular target: Human MDR1 transfected MDCK cells (Homo sapiens (Human), UniProt P08183); test: MDR1-MDCK assay (apparent permeability, efflux ratio); assay type: in vitro ADME; conditions: 1 μM, 120 minutes
IRAK4 = IRAK4 (Homo sapiens (Human), UniProt Q9NWZ3); test: IRAK4 2-hour 1 mM ATP Biochemical Assay (MesoScale Detection format)
[2] = Kinetic solubility assay (CLND), potassium phosphate buffer pH 6.8; assay type: physicochemical; conditions: pH 6.8, 2% DMSO, 24 hours at ambient temperature; for solubility at 24 h: pH 6.8, aqueous buffer
MDR1 = MDR1 (Homo sapiens (Human), UniProt P08183); test: MDR1-MDCK assay (apparent permeability, efflux ratio); assay type: in vitro ADME; conditions: human, MDCK-MDR1, 1 μM
[3] = molecular target: catalytical domain of human IRAK4 (a.a. 163-460) (Homo sapiens (Human), UniProt Q9NWZ3); test: IRAK4 SPR binding assay; conditions: single-cycle, 1:1 interaction model
[4] = Kpuu assay (in vivo brain-to-plasma partition, unbound); conditions: brain (unbound) versus plasma (unbound), intravenous infusion 4 to 24 h, unbound drug partition coefficient, read-out: Brain Kpu,u
[5] = 100 pM IRAK4, read-out: IRAK4 IC50
[6] = read-out: MDR1-MDCK_Efflux Ratio
[7] = potassium phosphate buffer, kinetic from dmso stock

Sequence of Human MDR1 transfected MDCK cells (P08183 whole entry): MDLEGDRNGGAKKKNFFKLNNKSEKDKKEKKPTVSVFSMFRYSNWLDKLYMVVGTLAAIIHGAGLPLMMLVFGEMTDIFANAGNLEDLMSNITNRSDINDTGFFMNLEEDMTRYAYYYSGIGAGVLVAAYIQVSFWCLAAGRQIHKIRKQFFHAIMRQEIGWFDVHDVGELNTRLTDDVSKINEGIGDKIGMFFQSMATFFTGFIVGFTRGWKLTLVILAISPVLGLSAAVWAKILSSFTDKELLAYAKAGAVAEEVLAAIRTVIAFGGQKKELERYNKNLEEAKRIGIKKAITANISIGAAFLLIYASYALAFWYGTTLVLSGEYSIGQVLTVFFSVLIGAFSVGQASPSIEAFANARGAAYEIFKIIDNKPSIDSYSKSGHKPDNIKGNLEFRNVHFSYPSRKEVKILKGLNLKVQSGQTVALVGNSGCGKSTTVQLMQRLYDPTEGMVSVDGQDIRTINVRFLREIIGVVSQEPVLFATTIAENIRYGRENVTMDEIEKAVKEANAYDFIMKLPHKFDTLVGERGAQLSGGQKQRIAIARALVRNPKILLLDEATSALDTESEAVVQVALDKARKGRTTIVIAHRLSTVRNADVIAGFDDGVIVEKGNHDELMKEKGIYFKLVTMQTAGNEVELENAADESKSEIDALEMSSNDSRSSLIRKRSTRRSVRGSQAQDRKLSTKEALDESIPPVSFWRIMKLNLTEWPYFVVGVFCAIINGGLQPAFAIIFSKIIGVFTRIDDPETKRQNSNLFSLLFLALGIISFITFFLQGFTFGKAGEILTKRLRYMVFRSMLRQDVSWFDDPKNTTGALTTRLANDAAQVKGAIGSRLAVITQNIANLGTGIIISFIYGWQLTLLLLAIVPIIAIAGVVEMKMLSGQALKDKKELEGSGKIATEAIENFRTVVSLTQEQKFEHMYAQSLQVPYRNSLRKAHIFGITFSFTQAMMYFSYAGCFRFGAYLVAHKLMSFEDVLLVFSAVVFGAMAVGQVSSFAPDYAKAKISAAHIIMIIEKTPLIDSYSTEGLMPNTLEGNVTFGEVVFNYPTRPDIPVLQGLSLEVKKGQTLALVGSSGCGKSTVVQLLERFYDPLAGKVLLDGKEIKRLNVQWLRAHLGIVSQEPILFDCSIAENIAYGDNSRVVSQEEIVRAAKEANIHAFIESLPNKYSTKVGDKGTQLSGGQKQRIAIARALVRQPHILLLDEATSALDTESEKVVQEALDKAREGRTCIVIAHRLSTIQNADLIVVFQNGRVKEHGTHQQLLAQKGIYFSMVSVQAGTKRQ
Sequence of MDR1 (P08183 whole entry, the tested form may be a part): as the sequence (P08183 whole entry) above
Sequence of IRAK4 (Q9NWZ3 whole entry): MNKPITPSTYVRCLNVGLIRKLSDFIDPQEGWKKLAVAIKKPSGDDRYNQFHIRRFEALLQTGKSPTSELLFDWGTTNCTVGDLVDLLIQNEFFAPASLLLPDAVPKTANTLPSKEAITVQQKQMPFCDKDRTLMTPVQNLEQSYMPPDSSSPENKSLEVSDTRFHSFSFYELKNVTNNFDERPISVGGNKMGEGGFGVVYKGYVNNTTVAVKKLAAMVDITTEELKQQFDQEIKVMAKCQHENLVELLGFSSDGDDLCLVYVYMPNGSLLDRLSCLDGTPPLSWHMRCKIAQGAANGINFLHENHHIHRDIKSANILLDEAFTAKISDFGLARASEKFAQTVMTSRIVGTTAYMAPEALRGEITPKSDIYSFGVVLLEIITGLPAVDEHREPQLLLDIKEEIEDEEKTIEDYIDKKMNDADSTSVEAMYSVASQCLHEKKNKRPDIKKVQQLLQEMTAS
Sequence of catalytical domain of human IRAK4 (a.a. 163-460) (Q9NWZ3 163-460): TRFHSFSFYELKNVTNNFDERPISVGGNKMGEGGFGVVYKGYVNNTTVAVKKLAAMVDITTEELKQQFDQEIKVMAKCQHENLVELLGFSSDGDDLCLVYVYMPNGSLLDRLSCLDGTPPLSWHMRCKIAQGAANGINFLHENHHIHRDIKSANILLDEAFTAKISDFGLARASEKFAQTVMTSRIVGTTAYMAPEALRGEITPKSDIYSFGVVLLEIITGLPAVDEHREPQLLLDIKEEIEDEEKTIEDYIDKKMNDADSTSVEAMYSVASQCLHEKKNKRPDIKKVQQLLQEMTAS

Row | SMILES | MDR1-MDCK_Efflux Ratio [1] | IC50 (IRAK4; [5]) | efflux ratio at 120 min, 1 μM (MDR1; [6]) | IRAK4 SPR binding Half Life [3] | Kp [4] | solubility at 24 h [2, 7] | Solubility pH 6.8 [2] | further results
1 | CC(C)Oc1nc2nn([C@]34CC[C@](C)(C3)OC4)cc2cc1C(=O)Nc1cccn(C)c1=O (single isomer, unassigned) [Comparator 1C, reference compound] |  |  |  |  |  |  |  | efflux ratio at 120 min, 1 μM (MDR1; comparator table, read-out: MDR1-MDCK Efflux Ratio): 1.2; IRAK4 SPR binding Half Life ([3]; comparator table): 0.452 h; Kp ([4]; comparator table): 1.3; solubility kinetic at 24 h ([2]; potassium phosphate buffer, aqueous buffer, kinetic from dmso stock, comparator table): 44.3 µg/mL (≈ 101 µM); IC50 (IRAK4; 100 pM IRAK4, comparator table, read-out: IRAK4 Biochemical IC50): 0.4 nM
2 | CC(C)Oc1cc2nn([C@]34CC[C@](C)(C3)OC4)cc2cc1C(=O)Nc1cccn([C@H]2C[C@H]2F)c1=O (single isomer, unassigned) [Example 51] |  | 0.1 nM | 3.47 | 2.32 h | 0.4 | 42.3 µg/mL (≈ 88 µM) |  | 
3 | C[C@@H]1C[C@@H]1n1cccc(NC(=O)c2cc3cn(C45COC(CF)(C4)C5)nc3nc2OC2CC2)c1=O [Example 92] | 5.77 | 1.7 nM |  |  |  |  | 12.8 ug/mL | 

The next lines start with results.

Row | MDR1-MDCK_Efflux Ratio [1] | IC50 (IRAK4; [5]) | efflux ratio at 120 min, 1 μM (MDR1; [6]) | IRAK4 SPR binding Half Life [3] | Kp [4] | solubility at 24 h [2, 7] | SMILES | Solubility pH 6.8 [2] | further results
4 | 1.95 | 37 nM |  |  |  |  | CC(C)Oc1cc2nn(C34COC(CF)(C3)C4)cc2cc1C(=O)Nc1cccn([C@@H]2C[C@@H]2C)c1=O [Example 81, 2-(1-(fluoromethyl)-2-oxabicyclo[2.1.1]hexan-4-yl)-6-isopropoxy-N-(1-((1R,2S)-2-methylcyclopropyl)-2-oxo-1,2-dihydropyridin-3-yl)-2H-indazole-5-carboxamide] |  | 
5 | 2.73 | 0.6 nM |  |  |  |  | C[C@@H]1C[C@@H]1n1cccc(NC(=O)c2cc3cn([C@@]45CC[C@@H](C4)OC5)nc3nc2OC2CC2)c1=O (single isomer, unassigned) [Example 94] | 14.7 ug/mL | 
6 |  | 0.2 nM | 5.16 | 1.18 h | 0.3 | 38.4 µg/mL (≈ 79.3 µM) | CC(C)Oc1cc2nn(C34COC(CF)(C3)C4)cc2cc1C(=O)Nc1cccn([C@H]2C[C@H]2F)c1=O [Example 52, N-(1-((1S,2R)-2-fluorocyclopropyl)-2-oxo-1,2-dihydropyridin-3-yl)-2-(1-(fluoromethyl)-2-oxabicyclo[2.1.1]hexan-4-yl)-6-isopropoxy-2H-indazole-5-carboxamide] |  | 
